We go through 19 compounds from US20250213555A1, “SUBSTITUTED TETRAHYDROFURAN ANALOGS AS MODULATORS OF SODIUM CHANNELS” (VERTEX PHARMACEUTICALS INCORPORATED, priority 2021, published 2025).

pIC50: −log10 of the molar value. Where only a bound is given, the exact number is not on record here.

Sequence of human Nav 1.8 (Q9Y5Y9 126-399 limits assumed): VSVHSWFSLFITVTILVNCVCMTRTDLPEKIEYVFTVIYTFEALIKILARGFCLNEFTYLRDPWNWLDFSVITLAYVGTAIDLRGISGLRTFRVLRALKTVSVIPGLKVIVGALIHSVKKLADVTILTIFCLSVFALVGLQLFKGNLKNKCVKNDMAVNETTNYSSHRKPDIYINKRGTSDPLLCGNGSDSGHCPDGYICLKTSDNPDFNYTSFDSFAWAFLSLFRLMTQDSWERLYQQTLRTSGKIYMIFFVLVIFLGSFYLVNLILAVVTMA
Sequence of human Nav 1.8 (Q9Y5Y9 660-890 limits assumed): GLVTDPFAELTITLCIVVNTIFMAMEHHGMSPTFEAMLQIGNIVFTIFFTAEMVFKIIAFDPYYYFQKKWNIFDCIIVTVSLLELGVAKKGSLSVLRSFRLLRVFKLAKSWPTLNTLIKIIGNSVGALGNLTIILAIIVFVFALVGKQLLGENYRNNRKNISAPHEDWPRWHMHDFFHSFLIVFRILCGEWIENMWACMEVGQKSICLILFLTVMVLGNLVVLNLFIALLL
Sequence of human Nav 1.8 (Q9Y5Y9 1148-1722 limits assumed): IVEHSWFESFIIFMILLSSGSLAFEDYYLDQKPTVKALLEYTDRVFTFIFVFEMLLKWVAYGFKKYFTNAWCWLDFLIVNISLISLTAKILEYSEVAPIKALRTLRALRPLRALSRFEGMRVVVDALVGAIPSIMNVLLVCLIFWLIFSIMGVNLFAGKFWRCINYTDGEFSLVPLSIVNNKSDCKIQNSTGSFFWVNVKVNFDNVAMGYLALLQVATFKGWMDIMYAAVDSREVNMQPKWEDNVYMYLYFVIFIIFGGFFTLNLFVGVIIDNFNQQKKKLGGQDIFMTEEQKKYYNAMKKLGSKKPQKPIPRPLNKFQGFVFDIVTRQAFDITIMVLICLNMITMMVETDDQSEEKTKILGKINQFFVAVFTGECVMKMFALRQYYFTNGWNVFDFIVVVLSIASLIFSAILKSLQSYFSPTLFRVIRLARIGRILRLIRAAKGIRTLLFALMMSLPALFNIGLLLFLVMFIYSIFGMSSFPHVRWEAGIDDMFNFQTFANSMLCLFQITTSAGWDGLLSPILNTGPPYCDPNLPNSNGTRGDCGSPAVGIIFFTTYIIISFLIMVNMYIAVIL

The target in the experiment is human Nav 1.8 (Homo sapiens, UniProt Q9Y5Y9). Put plainly: E-VIPR assay detecting and measuring Nav inhibition properties. The settings on record: HEK cells expressing a truncated form of human Nav 1.8; compound numbers without "*" (not marked as run in the presence of human serum); read-out: measured IC50 value in the E-VIPR Assay. The format is cell-based. The text has this:
E-VIPR Assay Detecting and Measuring Nav Inhibition Properties
Sodium ion channels are voltage-dependent proteins that can be activated by inducing membrane voltage changes by applying electric fields. The electrical stimulation instrument and methods of use, referred to as E-VIPR, are described in International Publication No. WO 2002/008748 A3 and C.-J. Huang et al. Characterization of voltage-gated sodium channel blockers by electrical stimulation and fluorescence detection of membrane potential, 24 Nature Biotech. 439-46 (2006), both of which are incorporated by reference in their entirety. The instrument comprises a microtiter plate handler, an optical system for exciting the coumarin dye while simultaneously recording the coumarin and oxonol emissions, a waveform generator, a current- or voltage-controlled amplifier, and parallel electrode pairs that are inserted into assay plate wells. Under integrated computer control, this instrument passes user-programmed electrical stimulus protocols to cells within the wells of the microtiter plate.
16-20 hours prior to running the assay on E-VIPR, HEK cells expressing a truncated form of human Nav 1.8 with full channel activity were seeded into microtiter 384-well plates, pre-coated with matrigel, at a density of 25,000 cells per well. 2.5-5% KIR2.1 Bacmam virus was added to the final cell suspension before seeding into cell plates. HEK cells were grown in Dulbecco's Modified Eagle's Medium (DMEM) supplemented with 10% FBS (Fetal Bovine Serum, qualified; Sigma #F4135), 1% NEAA (Non-Essential Amino Acids, Gibco #11140), 1% HEPES (Gibco #15630), 1% Pen-Strep (Penicillin-Streptomycin; Gibco #15140) and 5 μg/ml Blasticidin (Gibco #R^210-01). Cells were expanded in vented cap cell culture flasks, with 90-95% humidity and 5% CO2.
100 mg/mL Pluronic F-127 (Sigma #P2443), in dry DMSO
Compound Plates: Corning 384-well Polypropylene Round Bottom #3656
Cell Plates: 384-well tissue culture treated plates (Greiner #781091-2B)
2.5-5% KIR 2.1 Bacmam virus (produced in-house), prepared as described in Section 3.3 of J. A. Fornwald et al., Gene Expression in Mammalian Cells Using BacMam, a Modified Baculovirus System, 1350 Methods in Molecular Biology 95-116 (2016), the entire contents of which are incorporated by reference. The concentration used can be dependent on viral titer of each batch.
5 mM DiSBAC6(3), a voltage sensitive oxonol acceptor (CAS number 169211-44-3; 5-[3-(1,3-dihexylhexahydro-4,6-dioxo-2-thioxo-5-pyrimidinyl)-2-propen-1-ylidene]-1,3-dihexyldihydro-2-thioxo-4,6 (1H,5H)-pyrimidinedione), in dry DMSO. The preparation of DiSBAC6(3) is analogous to that of DiSBAC4(3) as described in Voltage Sensing by Fluorescence Resonance Energy Transfer in Single Cells, Gonzalez, J. E. and Tsien, R. Y. (1995) Biophys. J. 69, 1272-1280.
5 mM CC2-DMPE, a commercially available membrane-bound coumarin phospholipid FRET donor (ThermoFisher Scientific catalog number K1017, CAS number 393782-57-5; tetradecanoic acid, 1,1′-[(1R)-1-[8-(6-chloro-7-hydroxy-2-oxo-2H-1-benzopyran-3-yl)-3-hydroxy-3-oxido-8-oxo-2,4-dioxa-7-aza-3-phosphaoct-1-yl]-1,2-ethanediyl] ester) was prepared in dry DMSO. See also, Improved indicators of cell membrane potential that use fluorescence resonance energy transfer, Gonzalez, J. E. and Tsien, R. Y. (1997) Chem. Biol. 4, 269-277.
Voltage Assay Background Suppression Compound (VABSC-1) is prepared in H2O (89-363 mM, range used to maintain solubility)
Human Serum (HS, Millipore #S1P1-01KL, or Sigma SLBR5469V and SLBR5470V as a 50%/50% mixture, for 25% assay final concentration)
• Sodium Chloride 160 mM (9.35 g/L), Potassium Chloride, 4.5 mM (0.335 g/L), Glucose 10 mM (1.8 g/L), Magnesium Chloride (Anhydrous) 1 mM (0.095 g/L), Calcium Chloride 2 mM (0.222 g/L), HEPES 10 mM (2.38 g/L) in water. […]
Broadly, the pIC50 is the negative decadic logarithm of the IC50, by convention in mol/L. On to `CNC(=O)c1cc(NC(=O)[C@@H]2O[C@@](C)(C(F)(F)F)[C@@H](C)[C@H]2c2ccc(F)c(F)c2OCCO)ccn1` [Compound 38, 4-((2R,3S,4S,5R)-3-(3,4-difluoro-2-(2-hydroxyethoxy)phenyl)-4,5-dimethyl-5-(trifluoromethyl)tetrahydrofuran-2-carboxamido)-N-methylpicolinamide], for which the negative-log IC50 (pIC50) is more than 8.00. The value for `COc1c([C@H]2[C@H](C(=O)Nc3ccnc(C(N)=O)c3)O[C@@](C)(C(F)(F)F)[C@H]2C)ccc(O)c1F` [Compound 206, 4-((2R,3S,4S,5R)-3-(3-fluoro-4-hydroxy-2-methoxyphenyl)-4,5-dimethyl-5-(trifluoromethyl)tetrahydrofuran-2-carboxamido) picolinamide] was 7.00 to 8.00; that for `COc1c([C@H]2[C@H](C(=O)Nc3ccnc(C(=O)N4CCC45CNC5)c3)O[C@@](C)(C(F)(F)F)[C@H]2C)ccc(F)c1F` [Compound 225, (2R,3S,4S,5R)-N-(2-(1,6-diazaspiro[3.3]heptane-1-carbonyl)pyridin-4-yl)-3-(3,4-difluoro-2-methoxyphenyl)-4,5-dimethyl-5-(trifluoromethyl)tetrahydrofuran-2-carboxamide] was 7.00 to 8.00; that for `C[C@H]1[C@@H](c2ccc(F)c(F)c2OCCCN2CCC2)[C@H](C(=O)Nc2ccnc(C(N)=O)c2)O[C@@]1(C)C(F)(F)F` [Compound 134, 4-((2R,3S,4S,5R)-3-(2-(3-(azetidin-1-yl)propoxy)-3,4-difluorophenyl)-4,5-dimethyl-5-(trifluoromethyl)tetrahydrofuran-2-carboxamido)picolinamide] was 7.00 to 8.00. Turning to `C[C@H]1[C@@H](c2ccc(F)c(F)c2OCC2(O)CC2)[C@H](C(=O)Nc2ccnc(C(N)=O)c2)O[C@@]1(C)C(F)(F)F` [Compound 159, 4-((2R,3S,4S,5R)-3-(3,4-difluoro-2-((1-hydroxycyclopropyl)methoxy)phenyl)-4,5-dimethyl-5-(trifluoromethyl)tetrahydrofuran-2-carboxamido)picolinamide], the negative-log IC50 (pIC50) is more than 8.00. As for `C[C@H]1[C@@H](c2ccc(F)c(F)c2OCC2CCOC2)[C@H](C(=O)Nc2ccnc(C(N)=O)c2)O[C@@]1(C)C(F)(F)F` (single isomer, unassigned) [Compound 67], the negative-log IC50 (pIC50) was more than 8.00. The value for `COCC1(C)CC(c2ccc(F)c(F)c2OC)C(C(=O)Nc2ccnc(C(N)=O)c2)O1` (single isomer, unassigned) [Compound 27] was not above 6.00; that for `COc1c([C@H]2[C@H](C(=O)Nc3ccnc(C(=O)N4C[C@@H](F)[C@H](N(C)C)C4)c3)O[C@@](C)(C(F)(F)F)[C@H]2C)ccc(F)c1F` [Compound 299, (2R,3S,4S,5R)-3-(3,4-difluoro-2-methoxyphenyl)-N-(2-((3R,4R)-3-(dimethylamino)-4-fluoropyrrolidine-1-carbonyl)pyridin-4-yl)-4,5-dimethyl-5-(trifluoromethyl)tetrahydrofuran-2-carboxamide] was 7.00 to 8.00; that for `C[C@H]1[C@@H](c2ccc(F)c(F)c2OCC2(CO)CC2)[C@H](C(=O)Nc2ccnc(C(N)=O)c2)O[C@@]1(C)C(F)(F)F` [Compound 95, 4-((2R,3S,4S,5R)-3-(3,4-difluoro-2-((1-(hydroxymethyl)cyclopropyl)methoxy)phenyl)-4,5-dimethyl-5-(trifluoromethyl)tetrahydrofuran-2-carboxamido)picolinamide] was more than 8.00. Under `COc1c([C@H]2[C@H](C(=O)Nc3ccnc(C(=O)N4C[C@@H](F)[C@@H](N)C4)c3)O[C@@](C)(C(F)(F)F)[C@H]2C)ccc(F)c1F` [Compound 255, (2R,3S,4S,5R)-N-(2-((3S,4R)-3-amino-4-fluoropyrrolidine-1-carbonyl)pyridin-4-yl)-3-(3,4-difluoro-2-methoxyphenyl)-4,5-dimethyl-5-(trifluoromethyl)tetrahydrofuran-2-carboxamide] stands more than 8.00.

On to `COc1c([C@H]2[C@H](C(=O)Nc3ccnc(C(=O)N4C[C@@H](OC)[C@@H](N(C)C)C4)c3)O[C@@](C)(C(F)(F)F)[C@H]2C)ccc(F)c1F` [Compound 298, (2R,3S,4S,5R)-3-(3,4-difluoro-2-methoxyphenyl)-N-(2-((3S,4R)-3-(dimethylamino)-4-methoxypyrrolidine-1-carbonyl)pyridin-4-yl)-4,5-dimethyl-5-(trifluoromethyl)tetrahydrofuran-2-carboxamide], for which the negative logarithm of the IC50 (pIC50) is more than 8.00. As to `CC[C@H](CO)COc1c([C@H]2[C@H](C(=O)Nc3ccnc(C(N)=O)c3)O[C@@](C)(C(F)(F)F)[C@H]2C)ccc(F)c1F` (single isomer, unassigned) [Compound 93, rel-4-((2R*,3S*,4S*,5R*)-3-(3,4-difluoro-2-(2-(hydroxymethyl)butoxy)phenyl)-4,5-dimethyl-5-(trifluoromethyl)tetrahydrofuran-2-carboxamido)picolinamide], the pIC50 is more than 8.00. Under `C[C@H](O)COc1c([C@H]2[C@H](C(=O)Nc3ccnc(C(N)=O)c3)O[C@@](C)(C(F)(F)F)[C@H]2C)ccc(F)c1F` [Compound 153] stands more than 8.00; under `COc1c([C@H]2[C@H](C(=O)Nc3ccnc(C(=O)N4CCN[C@H](C)C4)c3)O[C@@](C)(C(F)(F)F)[C@H]2C)ccc(F)c1F` [Compound 249, (2R,3S,4S,5R)-3-(3,4-difluoro-2-methoxyphenyl)-4,5-dimethyl-N-(2-((R)-3-methylpiperazine-1-carbonyl)pyridin-4-yl)-5-(trifluoromethyl)tetrahydrofuran-2-carboxamide], more than 8.00; under `COCC[C@@]1(C)C[C@H](c2ccc(F)c(F)c2OC)[C@@H](C(=O)Nc2ccnc(C(N)=O)c2)O1` (single isomer, unassigned) [Compound 31], 6.00 to 7.00. With `CC1C(c2ccc(F)c(F)c2OCC2CC(O)C2)C(C(=O)Nc2cccc(C(N)=O)c2)OC1(C)C(F)(F)F` (single isomer, unassigned) [Compound 197, rel-(2R*,3S*,4S*,5R*)-N-(3-carbamoylphenyl)-3-(3,4-difluoro-2-(((1r,3S)-3-hydroxycyclobutyl)methoxy)phenyl)-4,5-dimethyl-5-(trifluoromethyl)tetrahydrofuran-2-carboxamide], the negative-log IC50 (pIC50) was more than 8.00. In the case of `COc1c([C@H]2[C@H](C(=O)Nc3ccnc(C(=O)O)c3)O[C@@](C)(C(F)(F)F)[C@H]2C)ccc(F)c1F` [Compound 214, 4-((2R,3S,4S,5R)-3-(3,4-difluoro-2-methoxyphenyl)-4,5-dimethyl-5-(trifluoromethyl)tetrahydrofuran-2-carboxamido)picolinic acid], the pIC50 is 7.00 to 8.00. The value for `C[C@H]1[C@@H](c2ccc(F)c(F)c2OCCCO)[C@H](C(=O)Nc2ccnc(C(N)=O)c2)O[C@@]1(C)C(F)(F)F` [Compound 72, 4-((2R,3S,4S,5R)-3-(3,4-difluoro-2-(3-hydroxypropoxy)phenyl)-4,5-dimethyl-5-(trifluoromethyl)tetrahydrofuran-2-carboxamido)picolinamide] was more than 8.00. Under `COc1c([C@H]2[C@H](C(=O)Nc3ccnc(C(=O)NCCO)c3)O[C@@](C)(C(F)(F)F)[C@H]2C)ccc(F)c1F` [Compound 221, 4-((2R,3S,4S,5R)-3-(3,4-difluoro-2-methoxyphenyl)-4,5-dimethyl-5-(trifluoromethyl)tetrahydrofuran-2-carboxamido)-N-(2-hydroxyethyl)picolinamide] stands more than 8.00.
